Results from patent US20050245508A1, “Treatment of malignant gliomas with TGF-beta inhibitors” (SCIOS, Inc., priority 2003, published 2005).

Test system: CCL64 mink lung epithelial cells
Experiment: CCL64 TGF-β bioassay (growth, crystal violet)
Assay type: cell-based
Details: human TGF-β1 and TGF-β2
Protocol: FIG. 1. Prevention of the growth inhibitory effects of recombinant and glioma-derived TGF-b1 and TGF-b2 by a TGF-β inhibitor (Compound No. 79 in Table 2). A. CCL64 cells were exposed to human recombinant TGF-b1 (filled symbols) or TGF-b2 (open symbols) (10 ng/ml) in the absence or presence of increasing concentrations of Comopund No. 79 for 72 h. B. CCL64 cells were maintained in serum-free medium containing heat-activated glioma cell SN (1:1) in the absence or presence of Compound No. 79 for 72 h. Growth was assessed by crystal violet assay (mean and SD, n=3).
The levels of bioactive TGF-β were determined using the CCL64 bioassay. Briefly, […] CCL64 cells were adhered to 96 well plates for 24 h, full medium was replaced by serum-free medium, and the cells were exposed to recombinant TGF-β1/2 or glioma cell culture supernatants diluted in serum-free medium for 72 h. Growth was assessed by crystal violet staining at 72 h. Glioma cell supernatants were harvested from confluent cultures maintained for 48 h in serum-free medium and heat-treated (5 min, 85° C.) to activate latent TGF-β (Leitlein et al., J. Immunol., 166:7238-7243 (2001)).

## TGF-β1: "Human recombinant TGF-β1 and TGF-β2 were obtained from Peprotech (London, UK)"
  EC50 of growth inhibitory effect on CCL64 cells: 0.5 ng/mL

## TGF-β2: "Human recombinant TGF-β1 and TGF-β2 were obtained from Peprotech (London, UK)"
  EC50 of growth inhibitory effect on CCL64 cells: 0.5 ng/mL
